Biological target: T1, sGC α1/β1 heterodimer stably expressed in CHO-K1 cells (CHO-K1/sGC) (Homo sapiens, UniProt Q02108+Q02153)
T1 construct: expressed in transfected cells
T1 sequence (Q02108 1-690): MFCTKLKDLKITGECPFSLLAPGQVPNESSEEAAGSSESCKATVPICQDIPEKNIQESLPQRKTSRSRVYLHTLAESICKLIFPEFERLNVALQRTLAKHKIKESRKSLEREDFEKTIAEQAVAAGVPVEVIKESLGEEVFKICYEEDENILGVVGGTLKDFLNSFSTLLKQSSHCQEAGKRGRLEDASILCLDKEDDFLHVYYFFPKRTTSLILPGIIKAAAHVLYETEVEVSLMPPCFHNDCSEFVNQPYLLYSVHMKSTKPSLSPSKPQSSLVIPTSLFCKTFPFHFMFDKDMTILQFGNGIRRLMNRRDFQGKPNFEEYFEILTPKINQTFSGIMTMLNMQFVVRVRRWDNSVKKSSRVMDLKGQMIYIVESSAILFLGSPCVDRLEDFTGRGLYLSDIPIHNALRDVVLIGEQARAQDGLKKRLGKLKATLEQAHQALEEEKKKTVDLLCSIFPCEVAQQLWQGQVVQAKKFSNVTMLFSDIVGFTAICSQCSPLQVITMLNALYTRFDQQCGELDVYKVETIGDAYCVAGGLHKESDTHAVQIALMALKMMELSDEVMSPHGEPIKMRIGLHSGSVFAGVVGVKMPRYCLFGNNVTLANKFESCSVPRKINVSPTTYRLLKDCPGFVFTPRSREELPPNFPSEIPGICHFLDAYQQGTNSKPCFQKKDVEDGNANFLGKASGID
T1 sequence (Q02153 1-619): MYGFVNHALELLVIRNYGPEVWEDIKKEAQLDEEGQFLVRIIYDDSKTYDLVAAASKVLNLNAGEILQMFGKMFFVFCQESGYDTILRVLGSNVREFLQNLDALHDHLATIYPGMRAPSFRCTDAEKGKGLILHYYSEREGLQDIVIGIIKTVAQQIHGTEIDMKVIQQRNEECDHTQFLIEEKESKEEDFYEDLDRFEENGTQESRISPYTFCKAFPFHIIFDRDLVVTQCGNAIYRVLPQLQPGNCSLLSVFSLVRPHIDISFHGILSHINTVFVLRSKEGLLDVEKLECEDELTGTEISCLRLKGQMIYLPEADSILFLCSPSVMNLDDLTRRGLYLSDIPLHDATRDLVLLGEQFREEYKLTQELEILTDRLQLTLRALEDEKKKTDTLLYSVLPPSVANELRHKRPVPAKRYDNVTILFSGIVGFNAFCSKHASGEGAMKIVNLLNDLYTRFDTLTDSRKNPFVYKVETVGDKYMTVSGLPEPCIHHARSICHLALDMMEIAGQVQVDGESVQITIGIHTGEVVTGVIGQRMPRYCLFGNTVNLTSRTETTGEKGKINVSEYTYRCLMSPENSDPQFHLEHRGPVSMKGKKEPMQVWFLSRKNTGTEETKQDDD
Assay: Cell-based sGC Functional Assay (CASA Assay)
Details: for Emax: CHO-K1, activation as percentage of maximum cGMP production of Compound A (set to 100%), read-out: % Act.; for EC50: inflection point of cGMP generation in CHO-K1/sGC cells, 4P fit, 1 hr at 37° C., read-out: IP
Method in brief: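 CHO-K1 cells stably expressing human sGC α1/β1 were incubated with compound for 1 h at 37 °C in buffer with 0.5 mM IBMX and 2.5% DMSO, with or without 1 μM DETA-NO. Intracellular cGMP was read by HTRF and expressed as percentage of maximal activation by reference activator Compound A. Values came from a 4-parameter fit.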

| Compound | Emax [%] | EC50 [µM] |
| --- | --- | --- |
| Cn1ncc2c(-c3nc(N)c4c(n3)NC(=O)C4(C)c3ccc(F)cn3)nc(CCC3CCC3)nc21 (stereo not shown) [Example 30, 4-Amino-2-(6-(2-cyclobutylethyl)-1-methyl-1H-pyrazolo[3,4-d]pyrimidin-4-yl)-5-(5-fluoropyridin-2-yl)-5-methyl-5,7-dihydro-6H-pyrrolo[2,3-d]pyrimidin-6-one] | 98 | 0.035 |
| Cn1ncc2c(-c3nc(N)c4c(n3)NC(=O)C4(c3ccc(Cl)cn3)C3CC3)nc(CC3CC(F)(F)C3)nc21 (stereo not shown) [Example 31, 4-Amino-5-(5-chloropyridin-2-yl)-5-cyclopropyl-2-(6-((3,3-difluorocyclobutyl)methyl)-1-methyl-1H-pyrazolo[3,4-d]pyrimidin-4-yl)-5,7-dihydro-6H-pyrrolo[2,3-d]pyrimidin-6-one] | 169 | 0.044 |
| Cn1ncc2c(-c3nc(N)c4c(n3)NC(=O)C4(c3ccc(C(F)(F)F)cn3)C3CC3)nc(CC3CC(F)(F)C3)nc21 (stereo not shown) [Example 32, 4-Amino-5-cyclopropyl-2-(6-((3,3-difluorocyclobutyl)methyl)-1-methyl-1H-pyrazolo[3,4-d]pyrimidin-4-yl)-5-(5-(trifluoromethyl)pyridin-2-yl)-5,7-dihydro-6H-pyrrolo[2,3-d]pyrimidin-6-one] | 113 | 0.059 |
| COc1ccc(C2(C)C(=O)Nc3nc(-c4nc(CC5CC(F)(F)C5)nc5c4cnn5C)nc(N)c32)nc1 (stereo not shown) [Example 33, 4-Amino-2-(6-((3,3-difluorocyclobutyl)methyl)-1-methyl-1H-pyrazolo[3,4-d]pyrimidin-4-yl)-5-(5-methoxypyridin-2-yl)-5-methyl-5,7-dihydro-6H-pyrrolo[2,3-d]pyrimidin-6-one] | 104 | 0.032 |
| CCCCc1nc(-c2nc(N)c3c(n2)NC(=O)C3(C)c2ccc(F)cn2)c2cnn(C)c2n1 (stereo not shown) [Example 34, 4-Amino-2-(6-butyl-1-methyl-1H-pyrazolo[3,4-d]pyrimidin-4-yl)-5-(5-fluoropyridin-2-yl)-5-methyl-5,7-dihydro-6H-pyrrolo[2,3-d]pyrimidin-6-one] | 109 | 0.044 |
| CCCCc1nc(-c2nc(N)c3c(n2)NC(=O)C3(C)c2ccc(C(C)C)cn2)c2cnn(C)c2n1 (stereo not shown) [Example 35, 4-Amino-2-(6-butyl-1-methyl-1H-pyrazolo[3,4-d]pyrimidin-4-yl)-5-(5-isopropylpyridin-2-yl)-5-methyl-5,7-dihydro-6H-pyrrolo[2,3-d]pyrimidin-6-one] | 88 | 0.096 |
| Cn1ncc2c(-c3nc(N)c4c(n3)NC(=O)C4(C)c3ccc(Cl)cn3)nc(CC3CC(F)(F)C3)nc21 (stereo not shown) [Example 37, 4-Amino-5-(5-chloropyridin-2-yl)-2-(6-((3,3-difluorocyclobutyl)methyl)-1-methyl-1H-pyrazolo[3,4-d]pyrimidin-4-yl)-5-methyl-5,7-dihydro-6H-pyrrolo[2,3-d]pyrimidin-6-one] | 192 | 0.041 |
| [2H]C([2H])([2H])n1ncc2c(-c3nc(N)c4c(n3)NC(=O)C4(C)c3nnc(C4CC4)o3)nc(CCC(F)(F)C(F)(F)F)nc21 (stereo not shown) [Example 39, 4-Amino-5-(5-cyclopropyl-1,3,4-oxadiazol-2-yl)-5-methyl-2-(1-(methyl-d3)-6-(3,3,4,4,4-pentafluorobutyl)-1H-pyrazolo[3,4-d]pyrimidin-4-yl)-5,7-dihydro-6H-pyrrolo[2,3-d]pyrimidin-6-one] | 115 | 0.15 |
| [2H]C([2H])([2H])n1ncc2c(-c3nc(N)c4c(n3)NC(=O)C4(CC)c3nnc(C4CC4)o3)nc(CCC(F)(F)C(F)(F)F)nc21 (stereo not shown) [Example 42, 4-Amino-5-(5-cyclopropyl-1,3,4-oxadiazol-2-yl)-5-ethyl-2-(1-(methyl-d3)-6-(3,3,4,4,4-pentafluorobutyl)-1H-pyrazolo[3,4-d]pyrimidin-4-yl)-5,7-dihydro-6H-pyrrolo[2,3-d]pyrimidin-6-one] | 120 | 0.887 |
| [2H]C([2H])([2H])n1ncc2c(-c3nc(N)c4c(n3)NC(=O)C4(c3nnc(C4CC4)o3)C3CC3)nc(CCCC(F)(F)F)nc21 (stereo not shown) [Example 43, 4-Amino-5-cyclopropyl-5-(5-cyclopropyl-1,3,4-oxadiazol-2-yl)-2-(1-(methyl-d3)-6-(4,4,4-trifluorobutyl)-1H-pyrazolo[3,4-d]pyrimidin-4-yl)-5,7-dihydro-6H-pyrrolo[2,3-d]pyrimidin-6-one] | 143 | 0.825 |
| CCn1ncc2c(-c3nc(N)c4c(n3)NC(=O)C4(c3nnc(C4CC4)o3)C3CC3)nc(CCC(F)(F)C(F)(F)F)nc21 (stereo not shown) [Example 45, 4-Amino-5-cyclopropyl-5-(5-cyclopropyl-1,3,4-oxadiazol-2-yl)-2-(1-ethyl-6-(3,3,4,4,4-pentafluorobutyl)-1H-pyrazolo[3,4-d]pyrimidin-4-yl)-5,7-dihydro-6H-pyrrolo[2,3-d]pyrimidin-6-one] | 101 | 0.738 |
| [2H]C([2H])([2H])n1ncc2c(-c3nc(N)c4c(n3)NC(=O)C4(c3nnc(C4CCC4)o3)C3CC3)nc(CCC(F)(F)C(F)(F)F)nc21 (stereo not shown) [Example 46, 4-Amino-5-(5-cyclobutyl-1,3,4-oxadiazol-2-yl)-5-cyclopropyl-2-(1-(methyl-d3)-6-(3,3,4,4,4-pentafluorobutyl)-1H-pyrazolo[3,4-d]pyrimidin-4-yl)-5,7-dihydro-6H-pyrrolo[2,3-d]pyrimidin-6-one] | 97 | 0.258 |
| [2H]C([2H])([2H])n1ncc2c(-c3nc(N)c4c(n3)NC(=O)C4(c3nnc(C4CC4)o3)C3CC3)nc(CCC(F)(F)F)nc21 (stereo not shown) [Example 47, 4-Amino-5-cyclopropyl-5-(5-cyclopropyl-1,3,4-oxadiazol-2-yl)-2-(1-(methyl-d3)-6-(3,3,3-trifluoropropyl)-1H-pyrazolo[3,4-d]pyrimidin-4-yl)-5,7-dihydro-6H-pyrrolo[2,3-d]pyrimidin-6-one] | 108 | 2.08 |
| Cn1ncc2c(-c3nc(N)c4c(n3)NC(=O)C4(c3nnc(C4(C)CC4)o3)C3CC3)nc(CCC(F)(F)C(F)(F)F)nc21 (stereo not shown) [Example 48, 4-Amino-5-cyclopropyl-2-(1-methyl-6-(3,3,4,4,4-pentafluorobutyl)-1H-pyrazolo[3,4-d]pyrimidin-4-yl)-5-(5-(1-methylcyclopropyl)-1,3,4-oxadiazol-2-yl)-5,7-dihydro-6H-pyrrolo[2,3-d]pyrimidin-6-one] | 112 | 0.399 |
| CC(C)c1nnc(C2(C3CC3)C(=O)Nc3nc(-c4nc(CCC(F)(F)C(F)(F)F)nc5c4cnn5C)nc(N)c32)o1 (stereo not shown) [Example 49, 4-Amino-5-cyclopropyl-5-(5-isopropyl-1,3,4-oxadiazol-2-yl)-2-(1-methyl-6-(3,3,4,4,4-pentafluorobutyl)-1H-pyrazolo[3,4-d]pyrimidin-4-yl)-5,7-dihydro-6H-pyrrolo[2,3-d]pyrimidin-6-one] | 113 | 0.149 |
| CC(C)c1nnc(C2(C)C(=O)Nc3nc(-c4nc(CCC(F)(F)C(F)(F)F)nc5c4cnn5C)nc(N)c32)o1 (stereo not shown) [Example 50, 4-Amino-5-(5-isopropyl-1,3,4-oxadiazol-2-yl)-5-methyl-2-(1-methyl-6-(3,3,4,4,4-pentafluorobutyl)-1H-pyrazolo[3,4-d]pyrimidin-4-yl)-5,7-dihydro-6H-pyrrolo[2,3-d]pyrimidin-6-one] | 176 | 0.084 |
| Cn1ncc2c(-c3nc(N)c4c(n3)NC(=O)C4(c3nnc(C4CC4)o3)C3CC3)nc(CC3CC(F)(F)C3)nc21 (stereo not shown) [Example 51, 4-Amino-5-cyclopropyl-5-(5-cyclopropyl-1,3,4-oxadiazol-2-yl)-2-(6-((3,3-difluorocyclobutyl)methyl)-1-methyl-1H-pyrazolo[3,4-d]pyrimidin-4-yl)-5,7-dihydro-6H-pyrrolo[2,3-d]pyrimidin-6-one] | 154 | 0.119 |
